Reference: US20120004235A1, “METHODS TO TREAT CANCER” (Rutgers, The State University of New Jersey, priority 2009, published 2012)

Legend:
[1] = system: RPMI 8226 (multiple myeloma) human tumor cell line; experiment: Cell TiterGlo cell growth inhibition (Test C); format: cell-based; details: 72 hours exposure, ATP content luminescence
Experimental: The RPMI 8226 (multiple myeloma) human tumor cell line was exposed to Compound 2 (free base) (or simply referred to herein throughout as “Compound 2”) at concentrations covering a […] (0.1 nM -100 nM) with an exposure time of 72 hours and experimental endpoint of cell growth inhibition as determined by a Cell TiterGlo luminescence assay (Promega) for ATP content. At least two independent experiments were conducted. The results were plotted and trend lines were graphed. […] Exposure to Compound 2 produced exponential killing of cells in a manner consistent with potent inhibition of a critical molecular target.

[2] = system: Human H460 Non-Small Cell Lung Carcinoma Tumor Xenograft Model; experiment: Test D xenograft, Compound 2 free base; format: in vivo, nu/nu mice; details: 1.36 mg/kg/day IV, qod × 3 for 2 cycles
Experimental: (§1) The anti-tumor activity of Compound 2 (free base) was evaluated against a variety of human tumor xenograft models. A summary of the studies, including tumor type, dosing and administration, growth inhibition, and major findings is presented below.

[3] = system: Human SK-MEL-3 Melanoma Tumor Xenograft Model; experiment: Test D xenograft, Compound 2 free base; format: in vivo, nu/nu mice; details: qod × 3 for 2 cycles
Experimental: as §1

[4] = system: Human 786-0 Renal Cell Tumor Xenograft Model; experiment: Test D xenograft, Compound 2 free base; format: in vivo, nu/nu mice; details: qod × 3 for 2 cycles
[5] = In vitro metabolic stability (Example 22); format: in vitro ADME; details: in vitro in mouse, rat, dog, and human
Experimental: (§2) The in vitro and in vivo activity of compound 2 and two of its metabolites (compound 5 and compound 6) were explored and compared with the activity of camptothecin Top1 inhibitors. […] In human HCT-116 colon ca, HT-29 colon ca and NCI-H460 NSCLC cells the concentration response for compound 2, compound 5 and compound 6 were the same. […] Compound 2 was administered intravenously on a QODx3 schedule for 2 cycles.

[6] = In vitro plasma binding (Example 22); format: in vitro ADME; details: in vitro in mouse, rat, dog, and human
Experimental: as §2

[7] = In vitro partitioning into red blood cells (Example 22); format: in vitro ADME; details: in vitro in mouse, rat, dog, and human
Experimental: as §2

[8] = system: human HCT-116 colon ca, HT-29 colon ca and NCI-H460 NSCLC cells; experiment: 72 hour exposure concentration response in tumor cells (Example 22); format: cell-based; details: range over HCT-116, HT-29 and NCI-H460 cells and the three compounds
Experimental: as §2

[9] = Body weight loss across the Example 22 xenograft studies; format: in vivo, mice; details: all dosages IV QODx3 for 2 cycles, except the high dosages in HCT-15 and NCI-H292
Experimental: as §2

[10] = system: Human H1299 Lung Tumor Xenograft Model; experiment: Test D xenograft, Compound 2 free base; details: qod × 3 for 2 cycles
[11] = system: Human MDA-MB-231 Breast Tumor Xenograft Model; experiment: Test D xenograft, Compound 2 free base; details: qod × 3 for 2 cycles
[12] = system: HCT-116 human colon tumor xenograft; experiment: Compound 2 after oral administration vs. the HCT-116 xenograft model
[13] = 1.36 mg/kg/day PO, qod×3 weekly for 2 cycles
[14] = 2.72 mg/kg/day PO, qod×3 weekly for 2 cycles
[15] = PO dosages (0.68, 1.36, 2.72 mg/kg/day, qod×3 weekly for 2 cycles)

CNCCn1c(=O)c2cc(OC)c(OC)cc2c2cnc3cc4c(cc3c21)OCO4 [Compound 2, 8,9-dimethoxy-2,3-methylenedioxy-5-[2-(N-methylamino)ethyl]-5H-dibenzo[c,h]1,6-naphthyridin-6-one]
IC50 ([1]; read-out: IC50 concentration): 3.4 nM | IC90 ([1]; read-out: IC90 concentration): 30 nM | Increase in Life Span (ILS) [2]: 1.8x | Tumor Growth Delay T-C [2]: 21 days | Tumor Growth Inhibition T/C (tumor volume) [2]: 14.1% | Increase in Life Span (ILS) ([3]; 1 mg/kg/day IV): 1.5x | Tumor Growth Delay T-C ([3]; 1 mg/kg/day IV): 15 days | Tumor Growth Inhibition T/C (tumor volume) ([3]; 1 mg/kg/day IV): 22.0% | Increase in Life Span (ILS) ([3]; 1.36 mg/kg/day IV): 2.3x | Tumor Growth Delay T-C ([3]; 1.36 mg/kg/day IV): 35 days | Tumor Growth Inhibition T/C (tumor volume) ([3]; 1.36 mg/kg/day IV): 13.4% | Increase in Life Span (ILS) ([3]; 1.7 mg/kg/day IV): 1.9x | Tumor Growth Delay T-C ([3]; 1.7 mg/kg/day IV): 26 days | Tumor Growth Inhibition T/C (tumor volume) ([3]; 1.7 mg/kg/day IV): 16.7% | Increase in Life Span (ILS) ([4]; 1 mg/kg/day IV): 1.2x | Tumor Growth Delay T-C ([4]; 1 mg/kg/day IV): 10 days | Tumor Growth Inhibition T/C (tumor volume) ([4]; 1 mg/kg/day IV): 52.5% | Increase in Life Span (ILS) ([4]; 1.36 mg/kg/day IV): 1.2x | Tumor Growth Delay T-C ([4]; 1.36 mg/kg/day IV): 10 days | Tumor Growth Inhibition T/C (tumor volume) ([4]; 1.36 mg/kg/day IV): 52.2% | Increase in Life Span (ILS) ([4]; 1.7 mg/kg/day IV): 1.4x | Tumor Growth Delay T-C ([4]; 1.7 mg/kg/day IV): 17 days | Tumor Growth Inhibition T/C (tumor volume) ([4]; 1.7 mg/kg/day IV): 25.9% | metabolic stability [5]: high metabolic stability | plasma binding [6]: 88-93% | partitioning into red blood cells [7]: concentration dependent partitioning into red blood cells | IC50 ([8]; read-out: IC50 concentrations): 0.5 to 0.65 nM | IC90 ([8]; read-out: IC90 concentrations): 1.8 to 2 nM | maximum body weight loss [9]: ≤ 20% | Increase in Life Span (ILS) ([10]; 1 mg/kg/day IV): 1.7x | Tumor Growth Delay T-C ([10]; 1 mg/kg/day IV): 20 days | Tumor Growth Inhibition T/C (tumor volume) ([10]; 1 mg/kg/day IV): 22.6% | Increase in Life Span (ILS) ([10]; 1.36 mg/kg/day IV): 1.8x | Tumor Growth Delay T-C ([10]; 1.36 mg/kg/day IV): 24 days | Tumor Growth Inhibition T/C (tumor volume) ([10]; 1.36 mg/kg/day IV): 13.2% | Increase in Life Span (ILS) ([10]; 1.7 mg/kg/day IV): 2.1x | Tumor Growth Delay T-C ([10]; 1.7 mg/kg/day IV): 34 days | Tumor Growth Inhibition T/C (tumor volume) ([10]; 1.7 mg/kg/day IV): 8.7% | Increase in Life Span (ILS) ([11]; 1 mg/kg/day IV): 1.7x | Tumor Growth Delay T-C ([11]; 1 mg/kg/day IV): 21 days | Tumor Growth Inhibition T/C (tumor volume) ([11]; 1 mg/kg/day IV): 30.7% | Increase in Life Span (ILS) ([11]; 1.36 mg/kg/day IV): >2.3x | Tumor Growth Delay T-C ([11]; 1.36 mg/kg/day IV): >47 days | Tumor Growth Inhibition T/C (tumor volume) ([11]; 1.36 mg/kg/day IV): 8.6% | Increase in Life Span (ILS) ([11]; 1.7 mg/kg/day IV): 2.0x | Tumor Growth Delay T-C ([11]; 1.7 mg/kg/day IV): 35 days | Tumor Growth Inhibition T/C (tumor volume) ([11]; 1.7 mg/kg/day IV): 17.7% | TGD [12, 13]: no effect on TGD | TGI (T/C) [12, 13]: 57.6% | ILS [12, 14]: 1.5 fold | TGD (T-C) [12, 14]: 18 days | toxic deaths [12, 15]: no toxic deaths | weight loss [12, 15]: < 20%
